Experimental data from patent publication US9581587B2, “Sperm staining and sorting methods” (INGURAN, LLC, priority 2011, dated 2017).

Legend:
[1] = system: membrane compromised sperm; test: Dead gate intensity divided by live gate intensity, flow cytometer (Example 5); format: cell-based; conditions: for ability to create a dead gate population (ordering of the four dyes): from dead and live intensity data of Table 13
Procedure: (§1) A single Jersey bull was collected at an initial sperm concentration 1900×10^6 sperm/ml in a volume of 5 ml. The progressive motility of the sperm was 65% with normal morphologies greater than 65%.
(§2) The entire ejaculate of sperm was suspended in first staining buffer, specifically a 7.4 pH TALP described in TABLE 1, to a concentration of 160×10^6 sperm per mL (determined on nucleocounter) and divided into three aliquots of about 20 mL into 50 mL Falcon tubes and pre-warmed for 10 minutes at 34° C. The DNA selective fluorescent dye, Hoechst 33342, was added and samples were held at 34° C. for 60 minutes. 3 different Hoechst 33342 Stain Levels were used=12 μL, 14 μL and 16 μL per 2 mL (effective concentrations of 48 μM, 56 μM, 64 μM).
(§3) Preparation of the second buffer including the dead quenching dye—A 2 L bag of TALP, described in TABLE 1, was adjusted to pH 5.60 using HCl and then sterile filtered. […] For each of the four dyes tested (R40-red food dye No. 40, Y5—yellow food dye No. 5, Y6—yellow food dye No. 6 and PR—phenol red), an appropriate number of milligrams of each powder was placed in a Erlenmeyer Flask and then an exact amount of TALP pH 5.60 was added to create a 250 μM concentration of the dye. The result was a working TALP stock for each dye with a 100% (125 μM) relative amount of dye 50% relative (62.5 μM) and 20% relative (25 μM) solutions were made by dilution of 100% by TALP pH 5.60.
(§4) Single tubes of stained sperm at each of the three Hoechst 33342 concentrations were treated with TALP pH 5.60 which had no dead quenching dye present. Single tubes using Vitamin B12 (red colored chemical) with stock concentration of 15 μM (12% relative) were tested.
(§5) After this “bulk” staining for 60 minutes, 1 mL aliquots of stained sperm were combined with 1 mL aliquots of the second buffer including the dead quenching dyes. Samples sat for approximately 30 minutes at room temperature before being analyzed on a MoFlo SX (Beckman Coulter, USA) sperm sorting flow cytometer. Event rates were held as close to 13,000 as possible at the point of data acquisition.
(§6) The total number of individual treatments was 42 tubes, each containing 2 mL of stained sample. The alignment of the sorter was established using nuclei and confirmed with live sample from the 50% Red 40 series. Once good alignment was established, each tube was placed on the sorter long enough to establish a stabile dead gate population (about 30 seconds) and then a screenshot was taken and saved as a .jpeg image. This approach of rapidly documenting each sample is used to assure the most consistent alignment between all samples. Realignment of sorter will not cause differences in the intensities of live and dead gate populations but will cause differences in split quality.
(§7) FIG. 4 illustrates an example histogram. The ratio of dead gate intensity divided by live gate intensity is created by dividing the distance “A” by the distance “B” shown as a percentage. Lower values mean higher levels of quenching. The ratio of peak height divided by valley height is created by dividing the distance “C” by the distance “D”. A value of 1.00 means “no split” while higher values mean “better splits”.

[2] = system: sperm; test: Split quality, height of peak divided by height of valley (Example 5); format: cell-based, Jersey bull
Procedure: as §1, §2, §3, §4, §5, §6, §7

[3] = system: membrane compromised sperm; test: Dead gate intensity, yellow 5 and phenol red at higher concentrations (Example 6); format: cell-based, Jersey bull; conditions: for Intensity: Hoechst 12 μL/2 mL
Procedure: (§8) A single Jersey bull was collected at an initial sperm concentration 1810×10^6 sperm/ml in a volume of 3.9 ml. The progressive motility of the sperm was 65% with normal morphologies greater than 50%.
(§9) Sperm were suspended at 320 million per mL in 30 mL a first buffer, (TALP described in table 1 at a pH 7.4) with 12 μL of Hoechst 33342 per 2 mL (48 μM) of stain and incubated for 1 hour at 34° C. Stained sperm was then placed as 1 mL aliquots in sample tubes and a 1 mL volume of the appropriate TALP was added. The same second buffer was used as example 1, namely a modified 5.60 pH TALP.
(§10) Each of the stained samples was sorted on a MoFlo SX (Beckman Coulter, USA) as described in Example 6. Screen shots were taken and the dead gate intensity and the split quality were measured in the same way described in Example 1 and recorded in TABLE 14.

[4] = system: sperm; test: Split quality PV (Example 6); format: cell-based, Jersey bull; conditions: for PV: Hoechst 12 μL/2 mL, resulting pH 6.70
Procedure: as §8, §9, §10

[5] = system: sperm; test: Post thaw motility of sorted sperm on CASA (Example 4); format: cell-based, canine; conditions: for Progressive / Motile: average, 0 Hr post thaw
Procedure: Sperm was collected from a single canine at room temperature into CaniPro Chill 5, available from Minitube, WI, USA, then centrifuged into a pellet and resuspended in a Tris buffer at a pH of 6.8.
Samples were extended to 40×10^6 sperm/ml in 1 ml volumes with the Tris buffer described in Example 1 but set to a pH of 7.2. Ten samples were then stained 4, 4, 5, 5, 7, 8, 8, 9, 9, and 10 μL of Hoechst 33342 and quenched with one of two quenching dyes at a concentration of 50 μM in a second buffer Tris buffer.
Red food dye No. 40 quencher—1 ml Tris at a pH 6.3 was added with red food dye No. 40 into samples stained with 4, 5, 8, 9, 10 μL Hoechst 33342. The red food dye No. 40 was added at a concentration of about 50 μM.
Yellow food dye No. 6 quencher—1 ml Tris at a pH 6.3 was added with yellow food dye No. 6 into samples stained with 4, 5, 7, 8, 9 μL Hoechst 33342. The yellow food dye No. 6 was added at the same concentration as the red food dye No. 40 quencher, at about 50 μM.
5 million cells were sex sorted with a MoFlo SX XPD into 50 mL Falcon tubes having 3.5 mL of a Tris-egg yolk catch fluid, described in Example 1 for both X and Y populations. Two samples were sorted, the red food dye No. 40 quenched treatment with 9 μL Hoechst 33342 and the yellow food dye […] quenched treatment with 7 μL Hoechst 33342.
Straws were then frozen and stored in liquid nitrogen.
Straws were thawed for 30 sec in a 38° C. water bath and their motilities were examined on CASA.
Table 12 illustrates the average motilities and progressive motilities for the sorted treatments. Canine sperm quenched with yellow food dye No. 6 provided about 4.5% more motile sperm in the X population and 6.5% more motile sperm in the Y population. Similarly, the yellow quenched dye provided 7% better progressive motility in the X population and 8% better progressive motility in the Y population.

[6] = dye 25 μM, Average over Hoechst levels
[7] = dye 62.5 μM, Average over Hoechst levels
[8] = dye 62.5 μM, Hoechst 12 μL/2 mL
[9] = dye 62.5 μM, Hoechst 14 μL/2 mL
[10] = dye 62.5 μM, Hoechst 16 μL/2 mL
[11] = dye 125 μM, Average over Hoechst levels

| SMILES | Dead Intensity [1, 6] [%] | Dead Intensity ([1]; dye 25 μM, Hoechst 12 μL/2 mL) [%] | Dead Intensity ([1]; dye 25 μM, Hoechst 14 μL/2 mL) [%] | Dead Intensity ([1]; dye 25 μM, Hoechst 16 μL/2 mL) [%] | Dead Intensity [1, 7] [%] | Dead Intensity [1, 8] [%] | Dead Intensity [1, 9] [%] | Dead Intensity [1, 10] [%] | Dead Intensity [1, 11] [%] | Dead Intensity ([1]; dye 125 μM, Hoechst 12 μL/2 mL) [%] | Dead Intensity ([1]; dye 125 μM, Hoechst 14 μL/2 mL) [%] | Dead Intensity ([1]; dye 125 μM, Hoechst 16 μL/2 mL) [%] | Height of Peak/Height of Valley ([2]; dye 25 μM, Hoechst 16 μL/2 mL) | Height of Peak/Height of Valley [2, 10] | Progressive ([5]; Y population) | ability to create a dead gate population (ordering of the four dyes) [1] | Height of Peak/Height of Valley ([2]; dye 125 μM, Hoechst 14 μL/2 mL) | Intensity ([3]; dye 62.5 μM, resulting pH 6.70) [%] | PV ([4]; dye 62.5 μM) | further results |
| --- | --- | --- | --- | --- | --- | --- | --- | --- | --- | --- | --- | --- | --- | --- | --- | --- | --- | --- | --- | --- |
| O=S1(=O)OC(c2ccc(O)cc2)(c2ccc(O)cc2)c2ccccc21 [Phenol Red, phenolsulfonphthalein] | 94 | 94 | 97 | 90 | 87 | 90 | 90 | 80 | 79 | 80 | 80 | 78 | 1.00 | 1.00 |  |  |  |  |  | Height of Peak/Height of Valley ([2]; dye 125 μM, Hoechst 16 μL/2 mL): 1.00; amount of dye needed for a similar dead gate intensity ratio as red food dye No. 40 and yellow food dye No. 6 [3]: twelve; Intensity ([3]; dye 125 μM, resulting pH 6.70): 79%; Intensity ([3]; dye 250 μM, resulting pH 6.70): 70%; Intensity ([3]; dye 500 μM, resulting pH 6.70): 67%; Intensity ([3]; dye 750 μM, resulting pH 6.70): 55%; Intensity ([3]; dye 875 μM, resulting pH 6.70): 45%; Intensity ([3]; dye 1250 μM, second buffer pH 5.60, resulting pH 6.70): 41%; split improvement in understained sample ([4]; 12 μL/2 mL Hoechst 33342, control samples had no split): created a split improvement; PV ([4]; dye 125 μM): 1.00 |
| COc1cc(S(=O)(=O)O)c(C)cc1N=Nc1c(O)ccc2cc(S(=O)(=O)O)ccc12 [Red 40, 6-hydroxy-5-[(2-methoxy-5-methyl-4-sulfophenyl)azo]-2-naphthalenesulfonic acid, reference compound] | 68 | 68 | 72 | 65 | 52 | 53 | 53 | 50 | 38 | 37 | 41 | 35 | 1.00 | 1.00 | 13 | about equal and better than the remaining dyes | 2.00 | 53 | 1.00 | Height of Peak/Height of Valley ([2]; dye 25 μM, Average for 12 μL and 14 μL stain series): 2.00 |
| O=S(=O)([O-])c1ccc(N=Nc2c(O)ccc3cc(S(=O)(=O)[O-])ccc23)cc1.[Na+].[Na+] [Yellow 6, Disodium 6-hydroxy-5[(4-sulfophenyl)azo]-2-naphthalenesulfononate] | 71 | 68 | 74 | 70 | 51 | 50 | 52 | 52 | 39 | 37 | 40 | 40 |  | 1.00 | 21 | about equal and better than the remaining dyes | 1.80 | 50 | 1.00 | better progressive motility than red quenched ([5]; X population): 7%; more motile sperm than red quenched ([5]; X population): about 4.5%; Motile ([5]; X population): 24; Progressive ([5]; X population): 18.5; better progressive motility than red quenched ([5]; Y population): 8%; more motile sperm than red quenched ([5]; Y population): ~6.5%; Motile ([5]; Y population): 25; Height of Peak/Height of Valley [2, 8]: 1.70 |
